{"source": "ChEMBL document CHEMBL5055672", "about": "“Design, Synthesis, Biological Evaluation, and Computational Studies of Novel Fluorinated Candidates as PI3K Inhibitors: Targeting Fluorophilic Binding Sites” (J Med Chem, 2021)", "format_in_all_cases": "functional", "conditions_in_all_cases": "read-out: GI", "key": {"CCRF-CEM": {"system": "CCRF-CEM", "test": "Cytotoxicity against human CCRF-CEM cells assessed as growth inhibition at 10 uM after 48 hrs by sulforhodamine B assay"}, "Malme-3M": {"system": "Malme-3M", "test": "Cytotoxicity against human MALME-3M cells assessed as growth inhibition at 10 uM after 48 hrs by sulforhodamine B assay"}, "UO-31": {"system": "UO-31", "test": "Cytotoxicity against human UO-31 cells assessed as growth inhibition at 10 uM after 48 hrs by sulforhodamine B assay"}, "BT-549": {"system": "BT-549", "test": "Cytotoxicity against human BT-549 cells assessed as growth inhibition at 10 uM after 48 hrs by sulforhodamine B assay"}, "HL-60(TB)": {"system": "HL-60(TB)", "test": "Cytotoxicity against human HL-60(TB) cells assessed as growth inhibition at 10 uM after 48 hrs by sulforhodamine B assay"}, "K562": {"system": "K562", "test": "Cytotoxicity against human K562 cells assessed as growth inhibition at 10 uM after 48 hrs by sulforhodamine B assay"}, "MOLT-4": {"system": "MOLT-4", "test": "Cytotoxicity against human MOLT-4 cells assessed as growth inhibition at 10 uM after 48 hrs by sulforhodamine B assay"}, "SR": {"system": "SR", "test": "Cytotoxicity against human SR cells assessed as growth inhibition at 10 uM after 48 hrs by sulforhodamine B assay"}, "A549": {"system": "A549", "test": "Cytotoxicity against human A549 cells assessed as growth inhibition at 10 uM after 48 hrs by sulforhodamine B assay"}, "HOP-62": {"system": "HOP-62", "test": "Cytotoxicity against human HOP-62 cells assessed as growth inhibition at 10 uM after 48 hrs by sulforhodamine B assay"}, "HOP-92": {"system": "HOP-92", "test": "Cytotoxicity against human HOP-92 cells assessed as growth inhibition at 10 uM after 48 hrs by sulforhodamine B assay"}, "NCI-H23": {"system": "NCI-H23", "test": "Cytotoxicity against human NCI-H23 cells assessed as growth inhibition at 10 uM after 48 hrs by sulforhodamine B assay"}, "HCT-116": {"system": "HCT-116", "test": "Cytotoxicity against human HCT-116 cells assessed as growth inhibition at 10 uM after 48 hrs by sulforhodamine B assay"}, "SF-268": {"system": "SF-268", "test": "Cytotoxicity against human SF-268 cells assessed as growth inhibition at 10 uM after 48 hrs by sulforhodamine B assay"}, "SF-295": {"system": "SF-295", "test": "Cytotoxicity against human SF-295 cells assessed as growth inhibition at 10 uM after 48 hrs by sulforhodamine B assay"}, "SF-539": {"system": "SF-539", "test": "Cytotoxicity against human SF-539 cells assessed as growth inhibition at 10 uM after 48 hrs by sulforhodamine B assay"}, "SNB-19": {"system": "SNB-19", "test": "Cytotoxicity against human SNB-19 cells assessed as growth inhibition at 10 uM after 48 hrs by sulforhodamine B assay"}, "SNB-75": {"system": "SNB-75", "test": "Cytotoxicity against human SNB-75 cells assessed as growth inhibition at 10 uM after 48 hrs by sulforhodamine B assay"}, "U-251": {"system": "U-251", "test": "Cytotoxicity against human U-251 cells assessed as growth inhibition at 10 uM after 48 hrs by sulforhodamine B assay"}, "LOX IMVI": {"system": "LOX IMVI", "test": "Cytotoxicity against human LOX IMVI cells assessed as growth inhibition at 10 uM after 48 hrs by sulforhodamine B assay"}, "UACC-62": {"system": "UACC-62", "test": "Cytotoxicity against human UACC-62 cells assessed as growth inhibition at 10 uM after 48 hrs by sulforhodamine B assay"}, "OVCAR-8": {"system": "OVCAR-8", "test": "Cytotoxicity against human OVCAR8 cells assessed as growth inhibition at 10 uM after 48 hrs by sulforhodamine B assay"}, "NCI/ADR-RES": {"system": "NCI/ADR-RES", "test": "Cytotoxicity against human NCI-ADR-RES cells assessed as growth inhibition at 10 uM after 48 hrs by sulforhodamine B assay"}, "786-0": {"system": "786-0", "test": "Cytotoxicity against human 786-0 cells assessed as growth inhibition at 10 uM after 48 hrs by sulforhodamine B assay"}, "ACHN": {"system": "ACHN", "test": "Cytotoxicity against human ACHN cells assessed as growth inhibition at 10 uM after 48 hrs by sulforhodamine B assay"}, "CAKI-1": {"system": "CAKI-1", "test": "Cytotoxicity against human CAKI-1 cells assessed as growth inhibition at 10 uM after 48 hrs by sulforhodamine B assay"}, "SN12C": {"system": "SN12C", "test": "Cytotoxicity against human SN12C cells assessed as growth inhibition at 10 uM after 48 hrs by sulforhodamine B assay"}, "MCF7": {"system": "MCF7", "test": "Cytotoxicity against human MCF7 cells assessed as growth inhibition at 10 uM after 48 hrs by sulforhodamine B assay"}, "MDA-MB-231": {"system": "MDA-MB-231", "test": "Cytotoxicity against human MDA-MB-231 cells assessed as growth inhibition at 10 uM after 48 hrs by sulforhodamine B assay"}, "[1]": {"test": "Cytotoxicity against human Hs 578T cells assessed as growth inhibition at 10 uM after 48 hrs by sulforhodamine B assay"}, "T47D": {"system": "T47D", "test": "Cytotoxicity against human T47D cells assessed as growth inhibition at 10 uM after 48 hrs by sulforhodamine B assay"}, "MDA-MB-468": {"system": "MDA-MB-468", "test": "Cytotoxicity against human MDA-MB-468 cells assessed as growth inhibition at 10 uM after 48 hrs by sulforhodamine B assay"}}, "data": [{"smiles": "O=S(=O)(Oc1ccc(-c2nnc(Nc3ccccc3)s2)cc1)C(F)(F)C(F)(F)C(F)(F)C(F)(F)C(F)(F)C(F)(F)C(F)(F)C(F)(F)F", "values": [{"measurement": "inhibition of growth at 10 µM", "setting": "CCRF-CEM", "result": 12.1, "unit": "%"}, {"measurement": "inhibition of growth at 10 µM", "setting": "Malme-3M", "result": 11.7, "unit": "%"}, {"measurement": "inhibition of growth at 10 µM", "setting": "UO-31", "result": 19.4, "unit": "%"}, {"measurement": "inhibition of growth at 10 µM", "setting": "BT-549", "result": 12.9, "unit": "%"}]}, {"smiles": "COC(=O)/C=C1\\S/C(=N\\N=C\\c2ccc(C(F)(F)F)cc2)N(c2ccccc2)C1=O", "values": [{"measurement": "inhibition of growth at 10 µM", "setting": "HL-60(TB)", "result": 16.7, "unit": "%"}, {"measurement": "inhibition of growth at 10 µM", "setting": "K562", "result": 21.4, "unit": "%"}, {"measurement": "inhibition of growth at 10 µM", "setting": "MOLT-4", "result": 12.8, "unit": "%"}, {"measurement": "inhibition of growth at 10 µM", "setting": "SR", "result": 19.6, "unit": "%"}, {"measurement": "inhibition of growth at 10 µM", "setting": "A549", "result": 12.4, "unit": "%"}, {"measurement": "inhibition of growth at 10 µM", "setting": "HOP-62", "result": 36.6, "unit": "%"}, {"measurement": "inhibition of growth at 10 µM", "setting": "HOP-92", "result": 12, "unit": "%"}, {"measurement": "inhibition of growth at 10 µM", "setting": "NCI-H23", "result": 10.1, "unit": "%"}, {"measurement": "inhibition of growth at 10 µM", "setting": "HCT-116", "result": 32.4, "unit": "%"}, {"measurement": "inhibition of growth at 10 µM", "setting": "SF-268", "result": 19.8, "unit": "%"}, {"measurement": "inhibition of growth at 10 µM", "setting": "SF-295", "result": 16.6, "unit": "%"}, {"measurement": "inhibition of growth at 10 µM", "setting": "SF-539", "result": 21, "unit": "%"}, {"measurement": "inhibition of growth at 10 µM", "setting": "SNB-19", "result": 25.8, "unit": "%"}, {"measurement": "inhibition of growth at 10 µM", "setting": "SNB-75", "result": 39.3, "unit": "%"}, {"measurement": "inhibition of growth at 10 µM", "setting": "U-251", "result": 29.2, "unit": "%"}, {"measurement": "inhibition of growth at 10 µM", "setting": "LOX IMVI", "result": 19.9, "unit": "%"}, {"measurement": "inhibition of growth at 10 µM", "setting": "UACC-62", "result": 18.4, "unit": "%"}, {"measurement": "inhibition of growth at 10 µM", "setting": "OVCAR-8", "result": 26.6, "unit": "%"}, {"measurement": "inhibition of growth at 10 µM", "setting": "NCI/ADR-RES", "result": 11.5, "unit": "%"}, {"measurement": "inhibition of growth at 10 µM", "setting": "786-0", "result": 11.1, "unit": "%"}, {"measurement": "inhibition of growth at 10 µM", "setting": "ACHN", "result": 40.1, "unit": "%"}, {"measurement": "inhibition of growth at 10 µM", "setting": "CAKI-1", "result": 28, "unit": "%"}, {"measurement": "inhibition of growth at 10 µM", "setting": "SN12C", "result": 24.1, "unit": "%"}, {"measurement": "inhibition of growth at 10 µM", "setting": "UO-31", "result": 18.3, "unit": "%"}, {"measurement": "inhibition of growth at 10 µM", "setting": "MCF7", "result": 25.2, "unit": "%"}, {"measurement": "inhibition of growth at 10 µM", "setting": "MDA-MB-231", "result": 19.8, "unit": "%"}, {"measurement": "inhibition of growth at 10 µM", "setting": "[1]", "result": 37.6, "unit": "%"}, {"measurement": "inhibition of growth at 10 µM", "setting": "BT-549", "result": 13.6, "unit": "%"}, {"measurement": "inhibition of growth at 10 µM", "setting": "T47D", "result": 20.4, "unit": "%"}, {"measurement": "inhibition of growth at 10 µM", "setting": "MDA-MB-468", "result": 24.6, "unit": "%"}]}]}
